Data taken from patent US20150183839A1, “SOYBEAN NODULATION REGULATORY PEPTIDES AND METHODS OF USE” (priority 2010, published 2015).
“Also recorded” adds a separate entry of the source.

How the values were obtained:
soybean nodulation [1] = test: Nodule numbers of soybean plants treated with KNO3 (incl. grafted plants); assay type: in vivo, Glycine max
Procedure: (§1) Soybean (Glycine max) lines used include the wild type Williams and its isogenic supernodulating nark mutant lines, nod4 and nod3-7 and the wild type Bragg and its isogenic hypernodulating nark mutant line, nts1116. Plants were grown in controlled glasshouse conditions (28° C./26° C. day/night, 16 hour day) in autoclaved pots and vermiculite where sterile growing conditions were required. Seeds requiring sterilisation were treated with 70% ethanol, 3% H2O2 for 1 min, followed by several rinses with water. Plants were watered as required with a modified nutrient solution lacking nitrogen (Herridge, 1982). Plants were inoculated with approximately OD600 0.01 Bradyrhizobium japonicum CB1809 or the corresponding NF mutant nodU grown in yeast-mannitol broth (YMB) at 28° for two days. For nitrate treatments, plants were watered with the indicated solutions of KNO3 every two days. For grafting experiments, reciprocal grafting was carried out 8 d after sowing and the graft unions were allowed to recover for 6 d before B. japonicum inoculation. Nodulation was scored three weeks after inoculation.
Soybean plants were treated with either 0, 2, 5, 10 or 15 mM KNO3 for 2 days prior to, and for 2 weeks following, rhizobia inoculation. The treated plants were then harvested simultaneously for RT-qPCR and nodule count studies. […]

[2] = test system: CLE30, CLE60 and CLE80 gene expression in soybean root; test: RT-qPCR of CLE gene expression in soybean roots after nitrogen source treatment; assay type: in vivo, Glycine max; conditions: for expression of CLE30 and CLE80 in roots / CLE60 expression in roots: 10 mM for two weeks; for expression of CLE30 and CLE80 in roots: relative to KCl control; for CLE60 expression in roots: relative to control
Procedure: FIG. 15. To test if CLE60 (GmNIC1) is induced by alternative nitrogen sources we treated soybeans with 10 mM solutions of the following chemicals for two weeks prior to harvesting root tissue to analyse gene expression: Ammonium Chloride (NH4Cl), Potassium Nitrate (KNO3) and Potassium Chloride control (KCl).
as §1
For gene expression analyses, tissue was snap frozen and homogenized in liquid nitrogen using a mortar and pestle. RNA was extracted using TRIzol reagent according to the manufacturer's instructions (Invitrogen). DNAse treatment (Fermentas, Ontario) was performed on 1 μg of RNA in the presence of MgCL2. cDNA was synthesised with SuperScript III (Invitrogen) from 0.5 μg DNAse treated RNA. RT-qPCR was conducted using an ABI 7900HT cycler in 384 well plates with SYBR green fluorescence detection. All reactions were performed in duplicate for at least three biological replicates using intron-spanning primers where possible and a target amplicon of approximately 100 bp (full primer sequences are included in Table 2). Gene expression values were calculated relative to ATP synthase after normalisation for PCR efficiency and plot correlation (R2) values of each primer pair as determined by LinRegPCR 7.5 (Ramakers et al., 2003).
In a preliminary study to determine if nitrate can induce the expression of the soybean CLE genes, root tissue was harvested after treatment with either 0 mM (water control) or 10 mM KNO3 for two weeks. […] A more thorough study to identify the induction of CLE60 expression by nitrate was subsequently performed using, root tissue harvested at 0, 8 or 24 h after the commencement of the above treatments.
Soybean plants were treated with either 0, 2, 5, 10 or 15 mM KNO3 for 2 days prior to, and for 2 weeks following, rhizobia inoculation. The treated plants were then harvested simultaneously for RT-qPCR and nodule count studies.

[3] = test system: Medicago truncatula nodulation; conditions: cited from earlier work
soybean nodulation [4] = test: Over-expression of CLE genes in transgenic soybean hairy roots, nodule number (Example 1); assay type: in vivo, Glycine max; conditions: for NARK/SUNN/HAR1 dependent inhibition / Systemic activity: Glycine max; for nodulation (nodule number) on over-expression: vs vector-only control
Procedure: as §1
The full length CDS of CLE30, CLE60 and CLE80 was directionally cloned into the pKANNIBAL vector for expression of RNAi constructs (Wesley et al., 2001). Pfu polymerase (Stratagene, La Jolla, Calif.) was used to amplify PCR products incorporating restriction nuclease sites from cDNA samples shown to express the target gene. XhoI/EcoRI (for) and KpnI (rev) restriction sites were included in the primer sequences depending on internal restriction sites of each gene (full primer sequences are included in Table 2). Likely clones were confirmed by direct DNA sequencing and capillary separation. Constructs were sub-cloned into p15SRK2 or pM1KCK1 integration vectors (A. Kereszt, unpublished) as a NotI fragment before tri-parental mating to introduce the constructs into Agrobacterium rhizogenes K599. For transgenic root verification in the CLE60 over-expression experiments the DsRed reporter was subcloned into pM1KCK1 from pHairyRed, which is a modified version of pCAMBIA (M-H Lin, P M Gresshoff, B J Ferguson, unpublished). Tri-parental mating was used to introduce DsRed into A. rhizogenes K599 carrying the CLE60 construct. A. rhizogenes were subsequently used for the induction of transgenic soybean hairy roots according to Kereszt et al (2007).
To determine if the soybean CLE peptides regulate nodulation in a NARK-dependent manner, a reverse-genetics approach using a hairy-root transformation system was used. Over-expression of a systemic Q signal would be expected to inhibit nodulation, even in non-transformed roots. To test this, the complete CDS of CLE30, CLE60 or CLE80 was cloned into the pKANNIBAL vector for the expression of efficient RNAi constructs (Wesley et al., 2001). However, to generate over-expressing constructs, the antisense construct was omitted and the Pdk intron of pKANNIBAL was left intact. Previous studies have shown the inclusion of an intron can lead to higher and more consistent expression levels in transgenic plants (Norris et al., 1993).
Tri-parental mating was used to integrate the constructs into Agrobacterium rhizogenes K599 which induces the formation of transgenic hairy roots in soybean (Kereszt et al., 2007).

[5] = nod4 supernodulation nark mutant plants
[6] = wild-type (Williams) soybean, transgenic hairy roots

Row | Molecule | expression of CLE30 and CLE80 in roots [2] | CLE60 expression in roots [2] | NARK/SUNN/HAR1 dependent inhibition [3] | Systemic activity [3] | NARK/SUNN/HAR1 dependent inhibition (soybean nodulation [4]) | Systemic activity (soybean nodulation [4]) | nodulation (nodule number) on over-expression (soybean nodulation [4]; [5]) | nodulation (nodule number) on over-expression (soybean nodulation [4]; [6]) | further results
1 | O=[N+]([O-])[O-].[K+] [KNO3, Potassium Nitrate] | not that of CLE80 or CLE30 | significantly induced expression of CLE60 | – | – | – | – | – | – | nodule numbers with KNO3 concentration (soybean nodulation [1]; 0, 2, 5, 10 or 15 mM KNO3, 2 weeks after inoculation): reduced in an inverse manner; nodule numbers of grafted plants (soybean nodulation [1]; 5 mM or 10 mM KNO3, WT scion, wild-type rootstock compared to nod4 mutant rootstock): reduced significantly; CLE30 expression in roots ([2]; 10 mM KNO3 for two weeks vs 0 mM water control): unchanged; KNO3 level at which CLE60 was significantly induced (as low as) ([2]; 2 days prior to and 2 weeks following rhizobia inoculation): 2 mM
2 | Cl.N [NH4Cl, Ammonium Chloride] | did not affect expression | induced expression of CLE60 | – | – | – | – | – | – | –
3 | CLE12: Medicago truncatula CLE peptide reported to reduce nodulation (Mortier et al., 2010) (LEGGSNIDSQRLLHELMVDRIKQKRSRTDLEDKAVPGDRLSPGGPNHIHN; UniProt G7ZZZ3 32-81, looked up) | – | – | partial | yes | – | – | – | – | –
4 | CLE13: Medicago truncatula CLE peptide reported to reduce nodulation (Mortier et al., 2010) (LRDHPLIHKNIDSRSLLQKLRIHISNHKQVRDISGDRLSPAGPDPQHNGRSPPRK; UniProt G7JV15 30-84, looked up) | – | – | partial | yes | – | – | – | – | –
5 | CLE80: Glycine max CLE protein, SEQ ID NO:7; rhizobia inoculation induced CLE (protein, Glycine max) MGNTSATLVPILALIMFSTFFMTLQARSLHGHNPLFAHKKVVDIQNFLHKSGIHLSKRVRIPFGDDLPLAPADRLAPGGPDPQHNVRAPPRKP | – | – | – | – | yes | yes | no reduction in the nodule numbers; also recorded: complete lack of nodule inhibition; also recorded: nodule numbers were not reduced | completely abolishes soybean nodulation; also recorded: completely eliminated nodulation; also recorded: eliminated nodulation completely; also recorded: nodules were eliminated | –
6 | CLE60: Glycine max CLE protein, SEQ ID NO:6; nitrate induced CLE acting locally in the root (protein, Glycine max, nitrate induced CLE acting locally in the root) MLEALGEMANAKQVLCLILLVLLFSKLESRSLEAFIEGKKTLAKGCSRELIEKSQLLKASFAKATTRFTNPRVSKRLSPGGPDQKHH | – | – | – | – | yes | no | no corresponding reduction in nodulation; also recorded: nodule numbers were not reduced | only partially reduces nodulation; also recorded: reduced nodulation by approximately half; also recorded: nodules were reduced or partially eliminated | reduction in nodulation (soybean nodulation [4]; over-expression, wild-type soybean): ~50%
